Source: publication PMC7554696 (International Journal of Molecular Sciences, 2020)
Residues, ends and D or L forms follow the SMILES beside them. *: point of attachment. Doxorubicin(3'-N) = COc1cccc2c1C(=O)c1c(O)c3c(c(O)c1C2=O)C[C@@](O)(C(=O)CO)C[C@@H]3O[C@H]1C[C@H](N*)[C@H](O)[C@H](C)O1; Fmoc = O=C(OCC1c2ccccc2-c2ccccc21)*

Tests used:
[1] = test system: dsDNA (DNA, duplex) CGTACGCGTACGCGTACGCG/CGCGTACGCGTACGCGTACG; assay: ITC (single set of identical sites); conditions: 10 mM Tris-HCl pH 7.2, 25 °C
[2] = test system: dsDNA (DNA, duplex) CGTACGCGTACGCGTACGCG/CGCGTACGCGTACGCGTACG; assay: UV-Vis absorbance titration (Benesi–Hildebrand, 480 nm); conditions: 10 mM Tris-HCl pH 7.2, 25 °C; 18 µM compound, no added salt stated
[3] = test system: dsDNA (DNA, duplex) CGTACGCGTACGCGTACGCG/CGCGTACGCGTACGCGTACG; assay: fluorescence quenching titration (Lineweaver–Burk, ex 490 nm, em 594 nm); conditions: 10 mM Tris-HCl pH 7.2, 25 °C; 1.94 µM compound; average of two experiments
[4] = test system: dsDNA (20 bp, 5′-CGTACGCGTACGCGTACGCG-3′ duplex); assay: Isothermal titration calorimetry (ITC) with dsDNA; assay type: binding; conditions: 10 mM Tris-HCl pH 7.2, 25 °C
[5] = test system: dsDNA (20 bp, 5′-CGTACGCGTACGCGTACGCG-3′ duplex); assay: UV-Vis spectrophotometric titration with dsDNA (Benesi–Hildebrand); assay type: binding; conditions: 10 mM Tris-HCl pH 7.2, 25 °C
[6] = test system: dsDNA (20 bp, 5′-CGTACGCGTACGCGTACGCG-3′ duplex); assay: Steady-state fluorescence quenching titration with dsDNA; assay type: binding; conditions: 10 mM Tris-HCl pH 7.2, 25 °C
dsDNA = assay: Time-resolved fluorescence lifetime measurement; assay type: physicochemical; conditions: λex 420 nm, λem 594 nm, 20 °C, ligand 5 µM, constant regardless of dsDNA concentration (0–0.25 µM)
[7] = test system: collagenase IV (containing MMP-2/-9); assay: Enzymatic cleavage of MMP-2/-9-cleavable octapeptide by collagenase IV (HPLC); assay type: in vitro ADME; conditions: 37 °C, APMA-activated 1 mM collagenase IV in HBSS, HPLC read-out
Experimental: The MMP-2/-9-cleavable peptide was degraded by collagenase IV (containing MMP-2/-9) in a time-dependent manner. […] In order to investigate how fast the octapeptide cleaved, the aliquots were removed after 2, 8, and 12 h.
The MMP-2/-9-cleavable octapeptide Fmoc–Gly–Pro–Leu–Gly–Leu–Ala–Gly–Gly was evaluated by enzymatic digestion with the use of collagenase IV (containing MMP-2/-9). In the first step, 1 mL of HBSS was added to […] of collagenase IV (205 u/mg) and mixed to complete dissolution. Activation of collagenase IV was performed using 1 mM APMA in 0.15 M NaOH for 1.5 h at 37 °C [24, 43]. The octapeptide stock solution was added to activated 1 mM collagenase IV and incubated at 37 °C. The aliquots were removed and analyzed by HPLC, between 2 and 12 h. The HPLC Dionex Ultimate 3000 (Waltham, MA, USA) was equipped with a bioZen Intact XB-C8 column (3.6 μm, 2.1 × 150 mm; Phenomenex, Aschaffenburg, Germany). The flow rate was set at 0.5 mL/min with a mobile phase consisting of solvent A (0.1% TFA) and solvent B (100% ACN). The gradient was as follows: 0–5 min, 0% of solvent B; 5–8 min, 0–30% of solvent B. The hydrolysis product was detected by MALDI TOF/TOF 5800 mass spectrometry (AB Sciex, Darmstadt, Germany).

SMILES	logKITC ([1]; 0.470 mM compound into 0.005 mM dsDNA)	KA [2]	KA [3]	logKITC ([1]; 0.174 mM compound into 0.002 mM dsDNA)	molar ratio of complex (ligand to dsDNA) from ITC ([4]; standard deviation in parentheses)	logKITC ([4]; ITC, single set of identical binding sites model, SD in parentheses)	ΔHITC ([4]; ITC, SD in parentheses)	TΔSITC ([4]; ITC, calculated from ΔGITC = ΔHITC − TΔSITC)	ΔGITC ([4]; ITC, ΔGITC = −RTlnKITC, SD in parentheses)	intrinsic association constant KA (ligand…dsDNA), Benesi–Hildebrand ([5]; UV-Vis absorbance at 480 nm, ligand 18 µM, dsDNA up to 1.90 µM)	free energy of binding ΔG = −RTlnKA ([5]; from spectrophotometric KA)	bimolecular quenching rate constant kq (Stern–Volmer) ([6]; fluorescence quenching by dsDNA, λex 490 nm, emission 594 nm, ligand 1.94 µM)	number of binding sites n (Scatchard, slope of log[(F0−F)/F] vs log[Q]) ([6]; fluorescence titration, ligands bound per dsDNA molecule)	fluorescence lifetime τ0 (dsDNA)	MMP-2/-9 cleaved product Fmoc–Gly–Pro–Leu–Gly detected (efficiency of enzymatic digestion) ([7]; 2 h incubation)	MMP-2/-9 cleaved product Fmoc–Gly–Pro–Leu–Gly detected (efficiency of enzymatic digestion) ([7]; 8 h incubation)	MMP-2/-9 cleaved product Fmoc–Gly–Pro–Leu–Gly detected (efficiency of enzymatic digestion) ([7]; 12 h incubation)	substrate (octapeptide) observed after incubation with collagenase IV ([7]; 12 h incubation)
COc1cccc2c1C(=O)c1c(O)c3c(c(O)c1C2=O)C[C@@](O)(C(=O)CO)C[C@@H]3O[C@H]1C[C@H](NC(=O)CNC(=O)CNC(=O)[C@H](C)NC(=O)[C@@H](N)CC(C)C)[C@H](O)[C@H](C)O1 (H-LAGG-{Doxorubicin(3'-N)})	4.24 (±0.09) log (unit not printed)	540000 M⁻¹	5.6e+06 M⁻¹															
COc1cccc2c1C(=O)c1c(O)c3c(c(O)c1C2=O)C[C@@](O)(C(=O)CO)C[C@@H]3O[C@H]1C[C@H](N)[C@H](O)[C@H](C)O1 [DOX, Doxorubicin]		1.1e+06 M⁻¹	1.1e+07 M⁻¹	6.03 (±0.04) log (unit not printed)	7.29 (±0.09)	6.03 (±0.04)	−9.52 (±0.17) kcal/mol	-1.3 kcal/mol	−8.26 (±0.05) kcal/mol	1.1e+06 M⁻¹	-8.23 kcal/mol	9.37e+15 M⁻¹ s⁻¹	approximately 1.0	1.057 ± 0.022 ns				
CC(C)C[C@H](NC(=O)CNC(=O)[C@H](CC(C)C)NC(=O)[C@@H]1CCCN1C(=O)CNC(=O)OCC1c2ccccc2-c2ccccc21)C(=O)N[C@@H](C)C(=O)NCC(=O)NCC(=O)O [Fmoc–Gly–Pro–Leu–Gly–Leu–Ala–Gly–Gly] (Fmoc-GPLGLAGG-OH)															52.54%	69.53%	82.42%	17.43%
